The record followed here is patent US12448389B2, “BRM targeting compounds and associated methods of use” (Prelude Therapeutics Incorporated, priority 2020, dated 2025).

Molecules are shown by their SMILES.

Common to all, as to format: cell-based
The target in one assay is T1, SMARCA4 (Homo sapiens, UniProt P51532).
T1 construct: endogenous in cells; host or cells: NCI-H520 (given as NCIH520 / NCIH1520 / H520)
Put plainly: SMARCA4 protein degradation in NCIH520 cells by In Cell Western (ICW). To be noted: highest concentration 1 μM; for DC50: H520 cells, overnight incubation (maximum 18 hours), read-out: DC50 (SM4_H520): SMARCA4 degradation potency; for Dmax: NCI-H520, overnight incubation (maximum 18 hours), read-out: Dmax % (SM4_H520): maximum SMARCA4 degradation within the concentrations tested. On the procedure: (§1) Compounds were dissolved in DMSO to make 10 mM stock and 3-fold series dilutions were further conducted keeping the highest concentration 10 μM. NCIH11693 and NCIH1520 cells were maintained in PRMI 1640 medium (Corning Cellgro, Catalog #: 10-040-CV) supplemented with 10% v/v FBS (GE Healthcare, Catalog #: SH30910.03) by splitting 1:3 twice a week.
(§2) SMACRA2 and SMARCA4 Protein Degradation DC50 Values in NCIH1693 and NCIH520 Cells by in Cell Western (ICW) Analysis.
(§3) Cells were trypsinized and 30 thousand cells/well were seeded into 384-well plates and were allowed to grow for 1-2 hours at 37° C. Eight-point, 3-fold serial dilutions of compounds from 0.5 mM stocks were added to the cells (using digital Dispenser D300-Tecan, keeping highest concentration 1 μM and normalizing with DMSO at the highest dispensed volume). Plates were incubated at 37° C. for overnight (maximum 18 hours). Cells incubated with DMSO was used as a vehicle control.
(§4) To perform In Cell Western, medium was removed from all the wells leaving cells attached to the surface. After removing the medium, cells were fixed within the plates with 40 μL of 4% formaldehyde by incubating at room temperature for 30 minutes, and then permeabilized with wash buffer (1×PBS with 0.1% Triton X-100) by washing the plate 5 times with 50 μL/well. Before labeling with primary antibodies, cells were blocked with 30 μL/well of blocking buffer (Licor Odyssey blocking buffer PBS #927-40000) for 30 minutes at room temperature. To measure SMARCA2 or SMARCA4 proteins, cells were labeled with 20 μL/well of anti SMARCA2 or SMACRA4 antibodies (Cell Signaling BRM #11966S 1:800, Cell Signaling BRG #49360S 1:800) diluted in Li-Cor Odyssey blocking buffer-PBS #927-40000, followed by overnight incubation at 4° C.
(§5) The next day, plates were washed 5×5 minutes with 50 μL/well of washing buffer to remove all the excess primary antibody and then 20 μL from a mixture of secondary antibody and fluorescent DNA specific dye (Goat anti rabbit 1:500 IRDye-800CW #92632211, and DRAQ5™ 1:2000-#ab108410) was added to each well. Plates were incubated for 1 hour at room temperature with gentle rocking. Cells were washed 5 times with 50 μL/well wash buffer, followed by one last wash with DI water, followed by 10 mins drying at 37° C. oven before scanning. Plates were scanned using Li-Cor Odyssey CLx imaging system to acquire integrated intensities at 700 nm and 800 nm. SMARCA signals were normalized to total cell count and then these normalized values were used to calculate the percent degradation relative to DMSO control and maximum inhibition. DC50s were calculated by using the GraphPad Prism4 program based on sigmoidal dose response equation ([Inhibitor] vs. normalized response-Variable slope).
(§6) In Table 36, the DC50/Dmax% (SM2_H520) refers to SMARCA2 degradation potency/maximum SMARCA2 degradation within the concentrations in H520 cells and DC50/Dmax% (SM4_H520) refers to SMARCA4 degradation potency/maximum SMARCA4 degradation within the concentrations tested in H520 cells.

The next assay deals with T2, SMARCA2 (Homo sapiens, UniProt P51531).
T2 construct: endogenous in cells; host or cells: NCI-H520 (given as NCIH520 / NCIH1520 / H520)
T2 sequence (P51531 whole entry): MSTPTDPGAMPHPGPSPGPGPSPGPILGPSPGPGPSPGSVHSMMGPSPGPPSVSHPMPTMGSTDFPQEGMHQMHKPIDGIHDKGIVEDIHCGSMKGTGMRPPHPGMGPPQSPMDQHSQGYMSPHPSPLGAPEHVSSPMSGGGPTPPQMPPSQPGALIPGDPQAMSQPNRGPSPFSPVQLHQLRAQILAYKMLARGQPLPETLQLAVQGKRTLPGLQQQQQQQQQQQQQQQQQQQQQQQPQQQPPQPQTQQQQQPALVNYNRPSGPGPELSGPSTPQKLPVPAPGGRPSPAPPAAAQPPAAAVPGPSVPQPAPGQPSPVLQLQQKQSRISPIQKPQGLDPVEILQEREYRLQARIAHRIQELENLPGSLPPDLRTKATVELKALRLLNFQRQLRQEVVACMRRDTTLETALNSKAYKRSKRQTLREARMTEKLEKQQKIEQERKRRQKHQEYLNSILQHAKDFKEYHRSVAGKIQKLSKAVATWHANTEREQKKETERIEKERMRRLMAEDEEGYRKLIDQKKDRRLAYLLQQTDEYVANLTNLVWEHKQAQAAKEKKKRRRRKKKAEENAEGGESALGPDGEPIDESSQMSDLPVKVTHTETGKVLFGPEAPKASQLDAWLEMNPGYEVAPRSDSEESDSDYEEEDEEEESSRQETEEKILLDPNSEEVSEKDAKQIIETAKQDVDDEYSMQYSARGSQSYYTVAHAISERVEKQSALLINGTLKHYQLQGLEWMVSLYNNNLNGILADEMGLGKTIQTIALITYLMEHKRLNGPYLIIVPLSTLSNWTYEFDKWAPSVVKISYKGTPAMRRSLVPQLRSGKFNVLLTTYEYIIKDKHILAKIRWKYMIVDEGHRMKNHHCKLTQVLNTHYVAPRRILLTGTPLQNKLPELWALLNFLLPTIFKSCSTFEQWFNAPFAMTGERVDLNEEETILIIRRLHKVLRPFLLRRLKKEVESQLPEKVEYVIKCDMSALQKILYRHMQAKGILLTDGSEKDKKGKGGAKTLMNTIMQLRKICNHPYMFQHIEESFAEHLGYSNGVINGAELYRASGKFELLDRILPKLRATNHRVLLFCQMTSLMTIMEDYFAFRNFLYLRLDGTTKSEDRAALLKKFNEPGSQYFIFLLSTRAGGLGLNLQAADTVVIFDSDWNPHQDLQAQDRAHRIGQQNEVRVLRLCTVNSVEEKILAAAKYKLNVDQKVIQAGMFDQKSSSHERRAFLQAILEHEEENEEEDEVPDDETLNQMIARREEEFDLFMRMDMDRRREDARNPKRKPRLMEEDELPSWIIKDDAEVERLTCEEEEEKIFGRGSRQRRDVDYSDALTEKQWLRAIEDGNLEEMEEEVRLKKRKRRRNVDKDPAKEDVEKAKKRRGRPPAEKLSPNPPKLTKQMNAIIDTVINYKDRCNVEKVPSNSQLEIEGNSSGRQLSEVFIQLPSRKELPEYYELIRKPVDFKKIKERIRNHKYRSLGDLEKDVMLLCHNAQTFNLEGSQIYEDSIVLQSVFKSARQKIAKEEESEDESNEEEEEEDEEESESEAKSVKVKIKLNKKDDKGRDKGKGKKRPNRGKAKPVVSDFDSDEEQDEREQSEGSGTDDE
In words: SMARCA2 protein degradation in NCIH520 cells by In Cell Western (ICW). The following applies: highest concentration 1 μM; for DC50: H520 cells, overnight incubation (maximum 18 hours), read-out: DC50 (SM2_H520): SMARCA2 degradation potency; for Dmax: NCI-H520, overnight incubation (maximum 18 hours), read-out: Dmax % (SM2_H520): maximum SMARCA2 degradation within the concentrations tested. The method, then: as §1, §2, §3, §4, §5, §6

The target in a further assay is T3, SMARCA4-HiBiT (Homo sapiens, UniProt P51532).
T3 construct: SMARCA4-HiBiT knock-in Hela monoclonal cell (CS3023226); host or cells: HeLa monoclonal knock-in line (CRISPR HiBiT knock-in at the endogenous locus, heterozygous)
T3 sequence (P51532 whole entry): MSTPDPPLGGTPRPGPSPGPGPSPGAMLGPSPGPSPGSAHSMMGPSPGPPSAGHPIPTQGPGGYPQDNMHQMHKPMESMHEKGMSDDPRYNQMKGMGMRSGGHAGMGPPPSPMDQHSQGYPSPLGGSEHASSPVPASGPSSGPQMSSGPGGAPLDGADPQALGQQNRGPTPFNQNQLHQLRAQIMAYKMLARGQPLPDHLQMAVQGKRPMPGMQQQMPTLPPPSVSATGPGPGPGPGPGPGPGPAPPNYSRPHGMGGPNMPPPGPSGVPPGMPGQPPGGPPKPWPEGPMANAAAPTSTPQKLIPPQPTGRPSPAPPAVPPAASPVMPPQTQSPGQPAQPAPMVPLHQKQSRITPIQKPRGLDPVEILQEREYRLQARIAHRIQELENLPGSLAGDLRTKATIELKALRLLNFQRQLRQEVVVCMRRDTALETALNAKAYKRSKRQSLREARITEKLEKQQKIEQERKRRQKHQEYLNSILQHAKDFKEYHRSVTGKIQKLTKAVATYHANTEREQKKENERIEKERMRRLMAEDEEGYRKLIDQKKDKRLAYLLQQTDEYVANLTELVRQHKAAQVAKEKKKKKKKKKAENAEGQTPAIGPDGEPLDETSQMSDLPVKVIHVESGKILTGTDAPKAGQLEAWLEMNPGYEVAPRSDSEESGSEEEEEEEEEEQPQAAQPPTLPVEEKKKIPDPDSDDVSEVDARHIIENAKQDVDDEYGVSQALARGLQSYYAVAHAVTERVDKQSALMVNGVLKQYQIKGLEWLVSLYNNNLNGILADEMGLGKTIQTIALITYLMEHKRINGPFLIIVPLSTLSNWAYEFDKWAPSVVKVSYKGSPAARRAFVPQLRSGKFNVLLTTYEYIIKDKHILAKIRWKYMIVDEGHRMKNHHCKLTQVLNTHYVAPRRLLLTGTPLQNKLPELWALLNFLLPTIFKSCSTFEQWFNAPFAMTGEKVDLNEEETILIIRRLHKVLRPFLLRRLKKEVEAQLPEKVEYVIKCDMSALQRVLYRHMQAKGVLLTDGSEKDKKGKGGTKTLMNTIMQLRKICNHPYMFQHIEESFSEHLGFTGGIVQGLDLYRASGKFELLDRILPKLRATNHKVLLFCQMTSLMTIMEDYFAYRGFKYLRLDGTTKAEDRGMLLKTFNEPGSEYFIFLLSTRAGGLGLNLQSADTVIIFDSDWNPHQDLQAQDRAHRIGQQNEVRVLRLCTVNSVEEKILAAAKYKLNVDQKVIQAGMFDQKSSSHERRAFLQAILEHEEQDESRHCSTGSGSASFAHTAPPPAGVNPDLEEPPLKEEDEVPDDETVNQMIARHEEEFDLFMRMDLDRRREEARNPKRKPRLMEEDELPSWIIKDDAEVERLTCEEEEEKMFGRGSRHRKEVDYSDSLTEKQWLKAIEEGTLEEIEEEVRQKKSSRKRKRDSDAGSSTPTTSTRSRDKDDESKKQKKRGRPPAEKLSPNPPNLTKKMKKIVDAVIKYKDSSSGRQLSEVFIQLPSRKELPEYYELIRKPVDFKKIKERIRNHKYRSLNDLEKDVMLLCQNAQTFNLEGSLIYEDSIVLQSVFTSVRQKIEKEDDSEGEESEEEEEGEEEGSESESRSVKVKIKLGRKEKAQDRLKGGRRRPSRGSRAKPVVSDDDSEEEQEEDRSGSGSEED
Put plainly: SMARCA4 HiBiT degradation assay in HeLa cells. The following applies: 18 hours incubation; for DC50: read-out: HeLa-HiBit-SM4 DC50; for Dmax: HeLa, read-out: HeLa-HiBit-SM4 Dmax (%). Put shortly:
(§7)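 HeLa monoclonal lines with heterozygous HiBiT knock-in were seeded at 2500 cells/well in EMEM with 10% FBS and treated with compound for 18 h at 37 °C. Remaining tagged protein was measured by Nano-Glo HiBiT lytic luminescence after 30–60 min at RT, and values came from curve fitting.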

The target of another assay is T4, SMARCA2-HiBiT (Homo sapiens, UniProt P51531).
T4 construct: SMARCA2-HiBiT knock-in Hela monoclonal cell (CS302366); host or cells: HeLa monoclonal knock-in line (CRISPR HiBiT knock-in at the endogenous locus, heterozygous)
T4 sequence (P51531 whole entry): as the sequence (P51531 whole entry) above
In words: SMARCA2 HiBiT degradation assay in HeLa cells. To be noted: 18 hours incubation; for DC50: read-out: HeLa_HiBit-SM2 DC50; for Dmax: HeLa, read-out: HeLa-HiBit-SM2 Dmax (%). Put shortly: as §7
(In general: With HiBiT, luminescence reflects the tagged protein that the partner subunit can reach.)

T1 sequence (P51532 whole entry): as the sequence (P51532 whole entry) above

As for `O=C1CCC(N2Cc3cc(CCN4CCC(c5cnc(N6CCN7c8cc(-c9ccccc9O)nnc8NC[C@H]7C6)nc5)CC4)ccc3C2=O)C(=O)N1` (stereo partly drawn) [Example 1, 3-(5-(2-(4-(2-((S)-2-(2-hydroxyphenyl)-5,6,6a,7,9,10-hexahydro-8H-pyrazino [1′,2′:4,5]pyrazino[2,3-c]pyridazin-8-yl)pyrimidin-5-yl)piperidin-1-yl)ethyl)-1-oxoiso-indolin-2-yl)piperidine-2,6-dione], at SMARCA4, the half-maximal degradation concentration (DC50) – broadly, the concentration at which degradation of the target reaches its halfway point – is < 100 nM and the Dmax was > 75%. Besides, on SMARCA2, the DC50 is < 100 nM and the Dmax is > 75%.

On to `O=C1CCC(N2Cc3cc(CCCN4CCC(c5cnc(N6CCN7c8cc(-c9ccccc9O)nnc8NC[C@@H]7C6)nc5)CC4)ccc3C2=O)C(=O)N1` (stereo partly drawn) [Example 2, 3-(5-(3-(4-(2-((R)-2-(2-hydroxyphenyl)-5,6,6a,7,9,10-hexahydro-8H-pyrazino[1′,2′:4,5]pyrazino[2,3-c]pyridazin-8-yl)pyrimidin-5-yl)piperidin-1-yl)propyl)-1-oxoisoindolin-2-yl)piperidine-2,6-dione], for which, on SMARCA4, the DC50 is < 100 nM and the Dmax was > 75%. Moreover, at SMARCA2, the DC50 was < 100 nM and the Dmax was > 75%.

Turning to `O=C1CCC(N2C(=O)c3ccc(N4CCC(OCCN5CCC(N6CCN7c8cc(-c9ccccc9O)nnc8NC[C@H]7C6)C5)CC4)cc3C2=O)C(=O)N1` (stereo partly drawn) [Example 15, 2-(2,6-Dioxopiperidin-3-yl)-5-(4-(2-(3-((S)-2-(2-hydroxyphenyl)-5,6,6a,7,9,10-hexahydro-8H-pyrazino[1′,2′:4,5]pyrazino[2,3-c]pyridazin-8-yl)pyrrolidin-1-yl)ethoxy)piperidin-1-yl) isoindoline-1,3-dione], on SMARCA2, the DC50 is < 100 nM and the Dmax was 50 to 75%.

In the case of `O=C1CCC(n2c3ccc(CCCN4CCC(c5cnc(O[C@H]6C[C@@H]7CNc8nnc(-c9ccccc9O)cc8N7C6)nc5)CC4)cc3c3cccnc32)C(=O)N1` (stereo partly drawn) [Example 23, 3-(6-(3-(4-(2-(((6aR,8S)-2-(2-hydroxyphenyl)-5,6,6a,7,8,9-hexahydro-pyrrolo[1′,2′:4,5]pyrazino[2,3-c]pyridazin-8-yl)oxy)pyrimidin-5-yl)piperidin-1-yl)propyl)-9H-pyrido[2,3-b]indol-9-yl)piperidine-2,6-dione], at SMARCA2, the DC50 is < 100 nM and the Dmax was > 75%.

As for `O=C1CCC(N2C(=O)c3ccc(N4CC[C@H](CN5C[C@@H]6[C@H](C5)[C@H]6CN5CCN6c7cc(-c8cc(F)ccc8O)nnc7NC[C@H]6C5)[C@@H](F)C4)cc3C2=O)C(=O)N1` (stereo partly drawn) [Example 277, 2-(2,6-dioxopiperidin-3-yl)-5-((3R,4R)-3-fluoro-4-(((1R,5S,6R)-6-(((S)-2-(5-fluoro-2-hydroxyphenyl)-5,6,6a,7,9,10-hexahydro-8H-pyrazino[1′,2′:4,5]pyrazino[2,3-c]pyridazin-8-yl)methyl)-3-azabicyclo[3.1.0]hexan-3-yl)methyl)piperidin-1-yl)isoindoline-1,3-dione], on SMARCA4-HiBiT, the “HeLa-HiBit-SM4 Dmax (%)” value is on record as “C (C=50%<Dmax<=75%)” and the 50% degradation concentration (DC50) is < 10 nM. Moreover, on SMARCA2-HiBiT, the DC50 is < 10 nM and the Dmax is > 85%.

As to `O=C1CCC(N2C(=O)c3ccc(N4CC[C@H](CN5C[C@@H]6[C@H](C5)[C@H]6CN5CCN6c7cc(-c8cc(F)ccc8O)nnc7NC[C@H]6C5)[C@@H](F)C4)cc3C2=O)C(=O)N1` (stereo partly drawn) [Example 278, 2-(2,6-dioxopiperidin-3-yl)-5-((3R,4R)-3-fluoro-4-(((1R,5S,6R)-6-(((S)-2-(5-fluoro-2-hydroxyphenyl)-5,6,6a,7,9,10-hexahydro-8H-pyrazino[1′,2′:4,5]pyrazino[2,3-c]pyridazin-8-yl)methyl)-3-azabicyclo[3.1.0]hexan-3-yl)methyl)piperidin-1-yl) isoindoline-1,3-dione], on SMARCA4-HiBiT, the “HeLa-HiBit-SM4 Dmax (%)” value is listed as “A (A=Dmax>85%)” and the DC50 is < 10 nM. In addition, at SMARCA2-HiBiT, the “HeLa-HiBit-SM2 Dmax (%)” value is “A (A=Dmax>85%)” and the half-maximal degradation concentration (DC50) was < 10 nM.

Regarding `O=C1CCC(N2C(=O)c3ccc(N4CC[C@H](CN5CCC(C(=O)N6CCN7c8cc(-c9cc(F)ccc9O)nnc8NC[C@H]7C6)CC5)[C@@H](F)C4)cc3C2=O)C(=O)N1` (stereo partly drawn) [Example 279, 2-(2,6-dioxopiperidin-3-yl)-5-((3R,4R)-3-fluoro-4-((4-((S)-2-(5-fluoro-2-hydroxyphenyl)-6,6a,7,8,9,10-hexahydro-5H-pyrazino[1′,2′:4,5]pyrazino[2,3-c]pyridazine-8-carbonyl)piperidin-1-yl)methyl)piperidin-1-yl)isoindoline-1,3-dione], at SMARCA4-HiBiT, the “HeLa-HiBit-SM4 Dmax (%)” value is “C (C=50%<Dmax<=75%)” and the DC50 is < 10 nM. On SMARCA2-HiBiT, the DC50 was < 10 nM and the Dmax was > 85%.

Consider `O=C1CCC(N2C(=O)c3ccc(N4CC[C@H](CN5CCC(C(=O)N6CCN7c8cc(-c9cc(F)ccc9O)nnc8NC[C@H]7C6)CC5)[C@@H](F)C4)cc3C2=O)C(=O)N1` (stereo partly drawn) [Example 280, 2-(2,6-dioxopiperidin-3-yl)-5-((3R,4R)-3-fluoro-4-((4-((S)-2-(5-fluoro-2-hydroxyphenyl)-6,6a,7,8,9,10-hexahydro-5H-pyrazino[1′,2′:4,5]pyrazino[2,3-c]pyridazine-8-carbonyl)piperidin-1-yl)methyl)piperidin-1-yl)isoindoline-1,3-dione], for which, on SMARCA4-HiBiT, the “HeLa-HiBit-SM4 Dmax (%)” value is on record as “B (B=75%<Dmax<=85%)” and the DC50 was < 10 nM. On SMARCA2-HiBiT, the “HeLa-HiBit-SM2 Dmax (%)” value is reported as “A (A=Dmax>85%)” and the DC50 is < 10 nM.

Turning to `O=C1CCC(N2C(=O)c3ccc(N4CC[C@H](CN5C[C@@H]6[C@H](C5)[C@H]6CN5CCN6c7cc(-c8c(O)cccc8F)nnc7NC[C@H]6C5)[C@@H](F)C4)cc3C2=O)C(=O)N1` (stereo partly drawn) [Example 281, 2-(2,6-dioxopiperidin-3-yl)-5-((3R,4R)-3-fluoro-4-(((1R,5S,6R)-6-(((S)-2-(2-fluoro-6-hydroxyphenyl)-5,6,6a,7,9,10-hexahydro-8H-pyrazino[1′,2′:4,5]pyrazino[2,3-c]pyridazin-8-yl)methyl)-3-azabicyclo[3.1.0]hexan-3-yl)methyl)piperidin-1-yl) isoindoline-1,3-dione], the DC50 at SMARCA4-HiBiT was 10 to 100 nM; on SMARCA2-HiBiT, < 10 nM. Also, the Dmax was ≤ 50% on SMARCA4-HiBiT and 75 to 85% on SMARCA2-HiBiT.

As for `O=C1CCC(N2Cc3ccc(N4CCC(CN5CCN(C(=O)N6CCN7c8cc(-c9cc(F)ccc9O)nnc8NC[C@H]7C6)CC5)CC4)cc3C2=O)C(=O)N1` (stereo partly drawn) [Example 282, 3-(6-(4-((4-((S)-2-(5-fluoro-2-hydroxyphenyl)-6,6a,7,8,9,10-hexahydro-5H-pyrazino[1′,2′:4,5]pyrazino[2,3-c]pyridazine-8-carbonyl)piperazin-1-yl)methyl)piperidin-1-yl)-1-oxoisoindolin-2-yl)piperidine-2,6-dione], at SMARCA4-HiBiT, the DC50 was < 10 nM and the Dmax lay in the range of 75 to 85%. On SMARCA2-HiBiT, the DC50 is < 10 nM and the Dmax is > 85%.
